Assay type in all cases: binding, mouse
For test [1], the system named is monoclonal anti-histamine antibody. Kind of test: Competitive kinetics: histamine and methylhistamine mixed with histamine-conalbumin conjugate over captured anti-histamine Mab (BIAcore SPR). As to conditions: 220 nM ligand solution mixed with 80 nM conjugate solution; 10 μl/min for 8 minutes; FIG. 6.
Method: (§1) A continuous flow of HBS (10 mM Hepes with 0.15M NaCl, 3.4 mM EDTA and 0.05% surfactant P20 at pH 7.4) was maintained over a BIAcore™ sensor chip CM5 (a gold-plated glass slide supporting a carboxymethyldextran layer via a monolayer of long-chain hydrocarbons; supplied by Pharmacia Biosensor AB, Uppsala, Sweden). The carboxylated matrix on the sensor surface was activated by a three-minute injection of a solution containing 0.2M N-ethyl-N'-(3-diethylaminopropyl)carbodiimide (EDC) and 0.05M N-hydroxysuccinimide (NHS). 100 μg/ml of rabbit anti-mouse Fc (RAMFc) antibodies (Pharmacia Biosensor AB, Uppsala, Sweden) in 10 mM acetate buffer, pH 4.75, were then injected followed by a pulse of ethanolamine-hydrochloride, pH 8.5, to block remaining NHS-ester groups.
Different solutions of the above prepared conalbumin conjugate, varying in concentration from 100 to 1000 nM, were then injected and the binding curves were recorded. […] For the following competitive experiment, a concentration of 80 nM was chosen.
For test [2], the system named is monoclonal anti-p24 antibody (Mab 7). Description: Competitive kinetics: synthetic p24 derived peptides mixed with p24 over captured anti-p24 Mab (BIAcore SPR). As to conditions: for affinity for the antibody (qualitative): p24 at 60 nM and the peptides at 44 μM, FIG. 4. The protocol:
With the above prepared sensor surface docked into the BIAcore™ instrument, a solution of purified monoclonal anti-p24 antibody (Pharmacia Diagnostics AB, Uppsala, Sweden), hereinafter referred to as Mab 7, was injected, the anti-p24 monoclonal antibody thereby being captured by the immobilized RAMFc. Different solutions of HIV core protein p24 (Pharmacia Genetic Engineering, San Diego, USA), varying in concentration from 18.75 to 300 nM, were then injected and the binding curves, relative response in resonance units (RU) versus time in seconds, were recorded (1 RU corresponds to a mass change, caused by the binding of a protein, on the sensor surface of about 1 pg/mm^2; Stenberg, E., et al., J. Colloid and Interface Sci. 143 (1991) 513-526).
100 μl volumes of a 60 nM solution of p24 in HBS were mixed with 100 μl of different concentrations (5 nM to 1 mM) of two synthetic p24 derived peptides corresponding to (i) the regions 329-352 (peptide 7): […] (Mw =2494), and (ii) the regions 332-349 (peptide 5): […] (Mw =1841) (obtained from Dr Ake Engstrom, Department of Immunology, Biomedical Center, University of Uppsala, Sweden). The peptide sequences are according to Ratner et al., Nature 313, 227-284, 1985 and are numbered according to Myers G. et al., Database Human Retroviruses and AIDS, Los Alamos National Laboratory, Los Alamos, U.S.A., 1988. Each mixture was injected at 10 μl/min for two minutes over the sensor surface with captured anti-p24 antibody and the respective binding curves for each peptide were recorded. Peptide 5 was used at the concentrations: 0, 4.91, 14.75, 44.26, 132.78, 398.33, and 1195.00 μM; and peptide 7 at the concentrations 0, 0.005, 0.016, 0.049, 0.147, 0.441, and 1.323 μM.
The binding curves for peptide 5 are shown in overlay plot in FIG. 2, and a corresponding overlay plot of the binding curves for peptide 7 is shown in FIG. 3. […] Evidently, these two peptides have quite different affinities for the immobilized antibody.
On the technique in general: Surface plasmon resonance follows binding to a sensor surface in real time, without labels.

Test [3] deals with monoclonal anti-theophylline antibody. Kind of test: Competitive kinetics: theophylline derivatives mixed with aminotheophylline-conalbumin conjugate over captured anti-theophylline Mab (BIAcore SPR). As to conditions: 500 nM ligand solution mixed with 620 nM conjugate solution; 10 μl/min for 90 seconds; FIG. 5.
Method: as §1
Different solutions of the above prepared conalbumin conjugate varying in concentration from 100 to 1000 nM, were then injected and the binding curves were recorded.

Regarding methylhistamine, the “affinity for the antibody (relative ranking)” value (shortened to “affinity … (relative ranking)”) in test [1] was “higher affinity”. In the case of `NCCc1c[nH]cn1` [histamine], the “affinity … (relative ranking)” value in test [1] is “methylhistamine has a higher affinity for the antibody than histamine itself”. For the molecule “DCKTILKALGPAATLEEMMTACQG [peptide 7, synthetic p24 derived peptide, regions 329-352]”, in test [2] (mixed with 60 nM p24 solution, 10 μl/min for two minutes, FIG. 3), the “peptide concentration at which competing kinetics is seen” value is on record as 5 nM. For the same molecule, in test [2], the “affinity for the antibody (qualitative)” value is “high affinity”. In the case of “TILKALGPAATLEEMMTA [peptide 5, synthetic p24 derived peptide, regions 332-349]”, the “peptide concentration at which competition is evident” value in test [2] (mixed with 60 nM p24 solution, 10 μl/min for two minutes, FIG. 2) is listed as “evident only at μM concentrations”. Further, the “affinity for the antibody (qualitative)” value in test [2] is “low affinity”. Turning to `Cn1c(=O)c2c(ncn2CC(=O)O)n(C)c1=O` [acetic acid derivative of theophylline, 7-theophylline acetic acid], the “affinity … (relative ranking)” value in test [3] is listed as “much lower affinity”.

As for aminotheophylline, in test [3], the “affinity … (relative ranking)” value was “highest affinity”.

The values above are taken from US5753518A, “Method of determining affinity and kinetic properties” (Pharmacia AB, priority 1993, dated 1998).
